This note sets out measurements from patent US9822144B2, “Benzodiazepine dimers, conjugates thereof, and methods of making and using” (priority 2015, dated 2017).

What all share (type): cell-based
The subject of test [1] is N87 gastric cancer cell line. The experiment in a line: Cytotoxic activity of dimers, ATP luminescence or MTS cell proliferation assay. The note with it: N87 gastric cancer cells, 72 h. Here is the method: (§1) The cytotoxic activity of dimers of this invention was tested against H226 lung cancer, 786-O renal cancer, N87 gastric cancer, and/or OVCAR3 ovarian cancer cell lines. The ability of dimers to inhibit cell proliferation can be measured by either an ATP luminescence assay or an MTS cell proliferation assay.
(§2) This is a general procedure for an ATP luminescence assay: Cells are seeded at 1×10^3 cells/well in 96-well plates for 3 h for ATP CellTiterGlo™ assays, respectively. Serial dilutions (1:3) of compounds are added to the wells. Plates are allowed to incubate for 72 h. A CellTiterGlo™ cell viability kit from Promega is used to measure ATP content of cells treated with test compounds following manufacturer's instruction. A decrease in the ATP content is a measure of decrease in cellular viability. The EC50 value—the concentration at which an agent reduces cell viability by 50% of the maximum effect—can be calculated using PRISM™ software, version 5.0 (GraphPad Software, La Jolla, Calif., USA).
(§3) The MTS cell proliferation assay was performed as follows: CellTiter 96 Aqueous Non-Radioactive Cell proliferation Kit from Promega (Madison, Wis.) is used to determine the number of viable cells in cell proliferation assay. Tumor cells are plated at certain seeding densities in sterile 384-well black clear bottom Matrix plates at 40 μL per well and incubated overnight at 37° C. in 5% CO2 before assaying. On the next day, one set of cell plates (10 plates) is used to determine time zero cell density, and 3-(4,5-dimethylthiazol-2-yl)-5-(3-carboxymethoxyphenyl)-2-(4-sulfophenyl)-2H-tetrazolium is added at 4 μL/well into 10 plates followed by incubation at 37° C. in 5% CO2 for three hours. This tetrazolium reagent is bioreduced by […] to form a formazan product which is soluble in aqueous solution. Absorbance at 490 nm is measured on an Envision reader (Perkin Elmer, Boston, Mass.). On the same day, compounds are added into remaining cell plates (T72 plates) and incubated at 37° C. in 5% CO2. After 72 hours, 4 μL MTS reagents are then added into those cell plates. The plates are further incubated at 37° C. in 5% CO2 for three hours and the absorbance values at A490 were measured on an Envision reader.

Test [2] relates to OVCAR3 ovarian cancer cell line. The test is described as above. The settings on record: 72 h. The procedure: as §1, §2, §3
The subject of test [3] is H226 lung cancer cell line. The description is as above. The settings on record: 72 h. The procedure:
as §1, §2, §3

Test [4] concerns DMS 79 small-cell lung cancer cell line. The experiment in a line: Activity of dimers against small-cell lung cancer cell line (Table IB). The settings on record: Homo sapiens, DMS 79 small-cell lung cancer cells.
In test [5] the test system is H187 small-cell lung cancer cell line. The test is described as above. The settings on record: Homo sapiens, NCI-H187, H187 small-cell lung cancer cells.
The mark [6] stands for this setting: Homo sapiens, OVCAR-3, OVCAR3 ovarian cancer cells.
Setting [7] is: Homo sapiens, NCI-H226, H226 lung cancer cells.

With `COc1cc2c(cc1OCCCOc1cc3c(cc1OC)C(=O)N1Cc4ccccc4C[C@H]1C=N3)N=C[C@@H]1Cc3ccccc3CN1C2=O` [IIa-01], the EC50 in test [1] was determined as 16 pM; in test [2] (setting [6]) it was 150 pM.
Take `COc1cc2c(cc1OCCCCCOc1cc3c(cc1OC)C(=O)N1Cc4ccccc4C[C@H]1C=N3)N=C[C@@H]1Cc3ccccc3CN1C2=O` [IIa-02]: the values for the half-maximal effective concentration (EC50) in test [3] (H226 lung cancer cells), in test [1] and in test [2] (OVCAR3 ovarian cancer cells) were 46 to 180 pM, 49 to 150 pM and 77 to 120 pM, respectively.
For `COc1cc2c(cc1OCCCOc1cc3c(cc1OC)C(=O)N1Cc4ccccc4C[C@H]1CN3)N=C[C@@H]1Cc3ccccc3CN1C2=O` [IIa-03] the same measures were 410 pM, 460 pM and 180 pM.
As for `COc1cc2c(cc1OCCCOc1cc3c(cc1OC)C(=O)N1Cc4ccccc4C[C@H]1CN3)NC[C@@H]1Cc3ccccc3CN1C2=O` [IIa-04], the concentration giving a half-maximal response (EC50) in test [3] (setting [7]) amounted to 8000 pM; in test [1], 5700 pM; in test [2] (setting [6]) it was 2600 pM.
In the case of `COc1cc2c(cc1OCc1cc(N)cc(COc3cc4c(cc3OC)C(=O)N3Cc5ccccc5C[C@H]3C=N4)c1)N=C[C@@H]1Cc3ccccc3CN1C2=O` [IIa-05, (6aS,6a′S)-3,3′-(((5-amino-1,3-phenylene)bis(methylene))bis(oxy))bis(2-methoxy-6a,7-dihydrobenzo[5,6][1,4]diazepino[1,2-b]isoquinolin-14(12H)-one)], the EC50 in test [3] (setting [7]) came out at 150 pM; in test [1], 150 pM; in test [2] (setting [6]), 90 pM.
As for `COc1cc2c(cc1OCCCCCOc1cc3c(cc1OC)C(=O)N1Cc4cc(N)ccc4C[C@H]1C=N3)N=C[C@@H]1Cc3ccccc3CN1C2=O` [IIa-10], the EC50 amounted to 20 pM in test [3] (setting [7]), 30 pM in test [1] and 20 pM in test [2] (setting [6]).
Turning to `COc1cc2c(cc1OCCNCCOc1cc3c(cc1OC)C(=O)N1Cc4ccccc4C[C@H]1C=N3)N=C[C@@H]1Cc3ccccc3CN1C2=O` [IIa-16, (6aS,6a′S)-3,3′-((azanediylbis(ethane-2,1-diyl))bis(oxy))bis(2-methoxy-6a,7-dihydrobenzo[5,6][1,4]diazepino[1,2-b]isoquinolin-14(12H)-one)], the EC50 in test [3] (setting [7]) turned out to be 188 pM. The IC50 in test [4] was found to be 0.006 nM; in test [5], 0.005 nM.
Turning to `COc1cc2c(cc1OCC(N)COc1cc3c(cc1OC)C(=O)N1Cc4ccccc4C[C@H]1C=N3)N=C[C@@H]1Cc3ccccc3CN1C2=O` [IIa-18], the response in test [3] (H226 lung cancer cells) was half-maximal at 3200 pM (EC50).
On to `COc1cc2c(cc1OCCNCCOc1cc3c(cc1OC)C(=O)N1Cc4ccccc4C[C@H]1CN3)N=C[C@@H]1Cc3ccccc3CN1C2=O` [IIa-20], for which a half-maximal response in test [1] (EC50) required 1300 pM.
Compound `COc1cc2c(cc1OCc1cccc(COc3cc4c(cc3OC)C(=O)N3Cc5ccccc5C[C@H]3C=N4)c1)N=C[C@@H]1Cc3ccccc3CN1C2=O` [IIa-21] came in with an EC50 in test [1] of 20 pM.
The same measure, in the same setting: then `COc1cc2c(cc1OCc1cc(COc3cc4c(cc3OC)C(=O)N3Cc5ccccc5C[C@H]3C=N4)cc(N=[N+]=[N-])c1)N=C[C@@H]1Cc3ccccc3CN1C2=O` [IIa-22], with 50 pM.
`COc1cc2c(cc1OCCCCCOc1cc3c(cc1OC)C(=O)N1Cc4ccccc4C[C@H]1C=N3)N=C[C@@H]1CCCN1C2=O` [IIb-01]: the figures for the EC50 in test [3] (setting [7]), in test [1] and in test [2] (setting [6]) were 440 pM, 330 pM and 220 pM, respectively.
On to `COc1ccc2c(c1)CN1C(=O)c3cc(OC)c(OCCCOc4cc5c(cc4OC)C(=O)N4C=C(c6ccc(N)cc6)C[C@H]4C=N5)cc3N=C[C@@H]1C2` [IIb-03], for which the EC50 in test [3] (setting [7]) was determined as 150 pM; in test [1], 110 pM; in test [2] (setting [6]), 330 pM. In addition, the half-maximal inhibitory concentration (IC50) came to 0.003 nM in test [4] and 0.002 nM in test [5].
`COc1cc2c(cc1OCCCCCOc1cc3c(cc1OC)C(=O)N1c4ccncc4C[C@H]1C=N3)N=C[C@@H]1Cc3ccccc3CN1C2=O` [IIc-01]: in test [1], the EC50 was determined as 280 pM.
